From patent US6448269B1 (Eli Lilly and Company, priority 1993, dated 2002)
Structures can show the parent of a compound that is named as a salt. Where two headings read alike, the source gives them in different places.

Tests used:
[1] = system: human platelet-rich plasma; assay: Platelet aggregation assay (Aggregation-Human PRP/ADP); format: cell-based; settings: human platelet-rich plasma incubated with compound 1 minute at 37° C., ADP-induced aggregation, read-out: Agg: Human PRP/ADP IC50uM
Outline: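 Citrated human PRP (~200-400,000 platelets/μl) from healthy volunteers, stirred, incubated with compound 1 min at 37° C. Aggregation was then triggered, most often by ADP 5 μM, or by 1 μg/ml collagen, 1 μM U46619 or 0.3 μM platelet activating factor, and read in an aggregometer with platelet-poor plasma as reference.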

GPIIb-IIIa = target: T1, GPIIb-IIIa (Homo sapiens, UniProt P05106+P08514); assay: ELISA IIb-IIIa assay (fibrinogen binding to immobilized GPIIb-IIIa); settings: purified platelet GPIIb-IIIa receptor coated on ELISA plates; biotin-labeled fibrinogen 10 nM, 3 hours at 25° C.
T1 construct: Purified platelet GPIIb-IIIa receptor was prepared as described by Fitzgerald; from tissue; host or cells: platelets
T1 sequence (P08514 32-887 limits assumed): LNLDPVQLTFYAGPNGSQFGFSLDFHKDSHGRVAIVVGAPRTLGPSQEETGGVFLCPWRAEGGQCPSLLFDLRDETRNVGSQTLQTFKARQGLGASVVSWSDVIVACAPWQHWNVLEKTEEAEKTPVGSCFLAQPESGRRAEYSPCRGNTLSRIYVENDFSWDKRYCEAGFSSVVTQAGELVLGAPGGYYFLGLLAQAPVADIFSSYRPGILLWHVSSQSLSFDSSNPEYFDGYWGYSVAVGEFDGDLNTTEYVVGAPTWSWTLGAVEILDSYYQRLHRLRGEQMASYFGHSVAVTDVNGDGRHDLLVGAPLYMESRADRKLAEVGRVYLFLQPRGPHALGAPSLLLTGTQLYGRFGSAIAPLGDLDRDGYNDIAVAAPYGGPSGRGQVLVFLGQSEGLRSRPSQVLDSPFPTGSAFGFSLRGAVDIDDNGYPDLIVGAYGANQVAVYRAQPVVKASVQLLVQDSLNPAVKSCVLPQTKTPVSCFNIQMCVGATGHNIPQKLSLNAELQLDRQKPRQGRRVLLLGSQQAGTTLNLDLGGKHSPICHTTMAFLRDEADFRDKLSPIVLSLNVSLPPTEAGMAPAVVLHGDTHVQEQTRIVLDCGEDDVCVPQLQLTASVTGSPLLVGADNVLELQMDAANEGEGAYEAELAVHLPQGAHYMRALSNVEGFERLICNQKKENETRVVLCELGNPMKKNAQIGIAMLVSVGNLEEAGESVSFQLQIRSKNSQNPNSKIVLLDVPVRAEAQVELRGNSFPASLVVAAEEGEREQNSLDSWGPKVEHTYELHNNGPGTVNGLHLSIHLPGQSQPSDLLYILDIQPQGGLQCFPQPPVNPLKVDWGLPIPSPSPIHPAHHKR
T1 sequence (P05106 27-788): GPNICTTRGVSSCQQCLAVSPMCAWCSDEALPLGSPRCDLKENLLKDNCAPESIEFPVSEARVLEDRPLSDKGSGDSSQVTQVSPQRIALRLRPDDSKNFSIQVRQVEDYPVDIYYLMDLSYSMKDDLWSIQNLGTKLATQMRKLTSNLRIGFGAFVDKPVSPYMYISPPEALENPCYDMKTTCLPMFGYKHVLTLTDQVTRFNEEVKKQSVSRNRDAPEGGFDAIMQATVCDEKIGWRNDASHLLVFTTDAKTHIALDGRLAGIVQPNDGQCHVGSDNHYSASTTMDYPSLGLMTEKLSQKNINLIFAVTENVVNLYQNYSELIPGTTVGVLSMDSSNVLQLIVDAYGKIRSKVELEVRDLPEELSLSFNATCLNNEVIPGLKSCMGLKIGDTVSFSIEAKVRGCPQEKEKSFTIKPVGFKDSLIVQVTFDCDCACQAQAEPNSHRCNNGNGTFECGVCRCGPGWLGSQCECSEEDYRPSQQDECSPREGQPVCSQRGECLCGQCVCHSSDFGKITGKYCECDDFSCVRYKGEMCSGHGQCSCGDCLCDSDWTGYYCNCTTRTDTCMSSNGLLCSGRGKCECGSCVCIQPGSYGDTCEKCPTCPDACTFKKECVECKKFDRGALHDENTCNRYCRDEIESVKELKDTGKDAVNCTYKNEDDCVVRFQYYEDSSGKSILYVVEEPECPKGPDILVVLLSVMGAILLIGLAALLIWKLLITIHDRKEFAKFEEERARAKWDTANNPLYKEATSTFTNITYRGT
Outline: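 Purified platelet GPIIb-IIIa was coated overnight at 4° C in Tris/NaCl/CaCl2 pH 7.4 and BSA-blocked. Biotinylated fibrinogen (10 nM final) was incubated with test compounds for 3 h at 25° C in Ca2+-containing binding buffer. Bound ligand was detected by anti-biotin–alkaline phosphatase with pNPP, OD 405.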

Compound	IC50 ([1]; 1 min)	IC50 (GPIIb-IIIa)	melting point	IC50 [1]
O=C(O)CC1CCc2cc(NC(=O)/C=C/C3CCNCC3)ccc2O1 (racemic) [Example 78, rac-(3,4-Dihydro-6-(N-(3-(piperidine-4-yl)propenoyl)amino)-2H-1-benzopyran-2-yl)acetic Acid]	0.18 µM	20 nM	–	–
CCCNC(=N)c1ccc(C(=O)Nc2ccc3c(c2)CCC(CC(=O)O)O3)cc1 (racemic) [Example 82, rac-(3,4-Dihydro-6-(N-(4-((propylamino)iminomethyl)benzoyl)amino)-2H-1-benzopyran-2-yl)acetic Acid]	0.12 µM	19 nM	–	–
CCCCNC(=N)c1ccc(C(=O)Nc2ccc3c(c2)CCC(CC(=O)O)O3)cc1 (racemic) [Example 84, rac-(6-(N-(4-((Butylamino)iminomethyl)benzoyl)amino)-3,4-dihydro-2H-1-benzopyran-2-yl)acetic Acid]	0.084 µM	5.5 nM	–	–
CCOC(=O)CC1CCc2cc(NC(=O)c3ccc(C(=N)NC(=O)OC)cc3F)ccc2O1 (racemic) [Example 88, Ethyl rac-(3,4-Dihydro-6-(N-(2-fluoro-4-((methoxycarbonylamino)iminomethyl)benzoyl)amino)-2H-1-benzopyran-2-yl)acetate]	0.084 µM	99 nM	–	–
N=C(NCc1ccccc1)c1ccc(C(=O)Nc2ccc3c(c2)CCC(CC(=O)O)O3)cc1 (racemic) [Example 93, rac-(3,4-Dihydro-6-(N-(4-(N′-(phenylmethylamino)iminomethyl)benzoyl)amino)-2H-1-benzopyran-2-yl)acetic Acid]	0.086 µM	9.4 nM	–	–
N=C(N)c1ccc(COc2ccc3c(c2)CCN(CC(=O)O)C3=O)cc1 [Example 1, 6-[[4-(Aminoiminomethyl)phenyl]methoxy]-3,4-dihydro-1-oxo-2(1H)-isoquinoline Acetic Acid Trifluoroacetate]	20 µM	600 nM	–	–
N=C(N)c1ccc(C#Cc2ccc3c(c2)CCN(CC(=O)O)C3=O)cc1 [Example 2, 6-[[4-(Aminoiminomethyl)phenyl]ethynyl]-3,4-dihydro-1-oxo-2(1H)-isoquinoline Acetic Acid Trifluoroacetate]	0.52 µM	30 nM	–	–
N=C(N)c1ccc(CCc2ccc3c(c2)CCN(CC(=O)O)C3=O)cc1 [Example 3, 6-[2-[4-(Aminoiminomethyl)phenyl]ethyl]-3,4-dihydro-1-oxo-2(1H)-isoquinoline Acetic Acid Trifluoroacetate]	1 µM	110 nM	–	–
N=C(N)c1ccc(C(=O)Nc2ccc3c(c2)CCN(CC(=O)O)C3=O)cc1 [Example 4, 6-[[(4-(Aminoiminomethyl)benzoy]amino]-3,4-dihydro-1-oxo-2(1H)-isoquinoline Acetic Acid Trifluoroacetate]	0.1 µM	3.3 nM	–	–
N=C(N)c1cccc(C#Cc2ccc3c(c2)CCN(CC(=O)O)C3=O)c1 [Example 17, 6-[[3-(Aminoiminomethyl)phenyl]ethynyl]-3,4-dihydro-1-oxo-2(1H)-isoquinoline Acetic Acid Trifluoroacetate]	> 100 µM	45000 nM	–	–
N=C(N)c1cccc(CCc2ccc3c(c2)CCN(CC(=O)O)C3=O)c1 [Example 18, 6-[2-[3-(Aminoiminomethyl)phenyl]ethyl]-3,4-dihydro-1-oxo-2(1H)-isoquinoline Acetic Acid Trifluoroacetate]	> 100 µM	11000 nM	–	–
N=C(N)c1ccc(CNC(=O)c2ccc3c(c2)CCN(CC(=O)O)C3=O)cc1 [Example 19, 6-[[(4-Aminoiminomethyl)phenyl]methylaminocarbonyl]-3,4-dihydro-1-oxo-2(1H)isoquinoline Acetic Acid Trifluoroacetate]	> 100 µM	13000 nM	–	–
CCOCCCC(CC(=O)O)N1CCc2cc(OCCCC3CCNCC3)ccc2C1=O (stereo not drawn) [Example 22, 6-[4-(Piperidn-4-yl)propyloxy]-3,4-dihydro-1-oxo-B-(3-ethoxypropyl)-1-oxo-2(1H)-isoquinoline Propanoic Acid Trifluoroacetate]	2 µM	200 nM	–	–
N=C(N)c1ccc(COc2ccc3c(c2)CCC(OCC(=O)O)C3)cc1 (stereo not drawn) [Example 23]	25 µM	190 nM	–	–
O=C(O)COC1CCc2cc(OCCCC3CCNCC3)ccc2C1 (stereo not drawn) [Example 24]	6.5 µM	760 nM	–	–
N=C(N)c1ccc(C(=O)Nc2ccc3c(c2)CCC(CC(=O)O)C3)cc1 (stereo not drawn) [Example 28]	0.19 µM	5 nM	–	–
N=C(N)c1ccc(C(=O)Nc2ccc3c(c2)CCC(OCC(=O)O)C3)cc1 (stereo not drawn) [Example 29]	0.28 µM	15 nM	–	–
N=C(N)c1ccc(C(=O)Nc2ccc3c(c2)CCC(CC(=O)O)=C3)cc1 [Example 31]	15 µM	16 nM	–	–
N=C(N)c1ccc(C(=O)Nc2ccc3c(c2)CCC(CC(=O)O)C3=O)c(F)c1 (stereo not drawn) [Example 32]	0.1 µM	4 nM	–	–
O=C(O)CN1CCc2cc(OCCCC3CCNCC3)ccc2C1 [Example 34]	2.3 µM	220 nM	–	–
N=C(N)c1ccc(COc2ccc3c(c2)CCN(CC(=O)O)C3)cc1 [Example 35]	0.33 µM	30 nM	–	–
N=C(N)c1ccc(C(=O)Nc2ccc3c(c2)CCN(CC(=O)O)C3)cc1 [Example 36]	0.17 µM	5 nM	–	–
N=C(N)c1ccc(C(=O)Nc2ccc3c(c2)CCC(/C=C/C(=O)O)C3)cc1 (stereo not drawn) [Example 37]	4.4 µM	100 nM	–	–
N=C(N)c1ccc(C(=O)Nc2ccc3c(c2)CCC(CCC(=O)O)C3)cc1 (stereo not drawn) [Example 38]	2.8 µM	240 nM	–	–
N=C(N)c1ccc(NC(=O)c2ccc3c(c2)CCC(OCC(=O)O)C3)cc1 (stereo not drawn) [Example 39]	0.36 µM	31 nM	–	–
N=C(N)c1ccc(NC(=O)c2ccc3c(c2)CCC(CC(=O)O)C3)cc1 (stereo not drawn) [Example 40]	1.6 µM	53 nM	–	–
N=C(N)c1ccc(C(=O)Nc2ccc3c(c2)OCC(OCC(=O)O)C3)cc1 (stereo not drawn) [Example 41]	0.3 µM	46 nM	–	–
N=C(N)c1ccc(C(=O)Nc2ccc3c(c2)CCC(CC(=O)O)C3=O)s1 (stereo not drawn) [Example 106]	–	–	205 to 208 °C (dec.)	–
(+−)-6-[[4-(Aminoiminomethyl)phenyl]methoxy]-3,4-dihydro-1-oxo-beta-(1,4-dioxyhexyl)-2(1H)-isoquinoline Propionoic Acid Trifluoroacetate [Example 13]	–	100 nM	–	0.68 µM
